From paper PMC9944328 (Nature Communications, 2023)
Where two headings read alike, the source gives them in different places.

Test system: SSTR2 mutants
Assay: SSTRs Gi-mediated cAMP inhibition, GloSensor, HEK293, 5 μM forskolin, 15 min room temperature (SSTR2 mutants)
Assay type: cell-based, human
Parameters: Best-fit Bottom, cAMP inhibition / Best-fit Top, cAMP inhibition / Span, cAMP inhibition / Bottom (best-fit value) / Top (best-fit value) / Span (best-fit value) / Span (best-fit) / Bottom (best-fit) / Top (best-fit) / Best-fit Bottom / Best-fit Top / Best-fit Span / Top / Span: scale not given here
Experimental: The levels of the intracellular 3′, 5′-cyclic AMP (cAMP) were measured by the GloSensor cAMP assay (Promega) as described in the previous studies[28],[41] which has been widely used. The human full-length SSTRs and mutants were cloned into the pcDNA3.1+ vector with a HA signal sequence followed by a Flag tag at the N-terminus. HEK293 cells (ATCC, CRL-1573) were seeded into 6-well microplates at a density of 1.0 × 10^6 cells/well and cultured for 24 h at 37 °C with 5% CO2. Cells were then co-transfected with SSTR wild-type or mutants and GloSensor plasmids. After 24 h of transfection, the cells were dissociated with TrypLE™ Express Enzyme (1X) (Thermo Fisher Scientific) and collected by centrifugation at 500 × g for 5 min. Then the collected cells were suspended in Hank’s balanced salt solution [HBSS (Thermo Fisher Scientific)] supplemented with […] (YEASEN), and then the suspension cells were seeded into 96-well plates with 90 μl/well. After incubating at room temperature for 40 min, 5 μM forskolin and ligands diluted in HBSS were added to each well and the plates were incubated at room temperature for 15 min. […] were measured using the Synergy H1 microplate reader (BioTek) and the data presented are means of at least three independent experiments.

[1] = cAMP inhibition, SSTR2 F127A-1 (run 1)
[2] = cAMP inhibition, SSTR2 F127A-2 (run 2)
[3] = cAMP inhibition, SSTR2 F127A-3 (run 3)
[4] = cAMP inhibition, SSTR2 F208A-1 (run 1)
[5] = cAMP inhibition, SSTR2 F208A-2 (run 2)
[6] = cAMP inhibition, SSTR2 F208A-3 (run 3)
[7] = cAMP inhibition, SSTR2 I130A-1 (run 1)
[8] = cAMP inhibition, SSTR2 I130A-2 (run 2)
[9] = cAMP inhibition, SSTR2 I130A-3 (run 3)
[10] = cAMP inhibition, SSTR2 Y205A-1 (run 1)
[11] = cAMP inhibition, SSTR2 Y205A-2 (run 2)
[12] = cAMP inhibition, SSTR2 Y205A-3 (run 3)
[13] = cAMP inhibition, SSTR2 T194H, run 1
[14] = cAMP inhibition, SSTR2 T194H, run 2
[15] = cAMP inhibition, SSTR2 T194H, run 3
[16] = cAMP inhibition, SSTR2 T194H, run 4
[17] = cAMP inhibition, SSTR2 V103N, run 1
[18] = cAMP inhibition, SSTR2 V103N, run 2
[19] = cAMP inhibition, SSTR2 V103N, run 3
[20] = cAMP inhibition, SSTR2 V103N, run 4

Structure (SMILES): C[C@@H](O)[C@@H]1NC(=O)[C@H](CCCCN)NC(=O)[C@@H](Cc2c[nH]c3ccccc23)NC(=O)[C@H](Cc2ccccc2)NC(=O)[C@@H](NC(=O)[C@H](N)Cc2ccccc2)CSSC[C@@H](C(=O)N[C@H](CO)[C@@H](C)O)NC1=O [octreotide]
- Top (best-fit value) (W188A-2, run 2): 109.9
- EC50 (W188A-2, run 2, read-out: EC50 (best-fit value)): 0.0722 nM
- Bottom (best-fit value) (W188A-3, run 3): 3.856
- LogEC50 (best-fit value) (W188A-3, run 3): -9.118
- Span (best-fit value) (W188A-3, run 3): 88.75
- Top (best-fit value) (W188A-3, run 3): 92.61
- EC50 (W188A-3, run 3, read-out: EC50 (best-fit value)): 0.762 nM
- Bottom (best-fit) (W269A-1): -8.692
- LogEC50 (best-fit) (W269A-1): -8.978
- Span (best-fit) (W269A-1): 108.2
- Top (best-fit) (W269A-1): 99.53
- EC50 (W269A-1, read-out: EC50 (best-fit)): 1.05 nM
- Bottom (best-fit) (W269A-2): -48.61
- LogEC50 (best-fit) (W269A-2): -9.361
- Span (best-fit) (W269A-2): 149.9
- Top (best-fit) (W269A-2): 101.3
- EC50 (W269A-2, read-out: EC50 (best-fit)): 0.435 nM
- Bottom (best-fit) (W269A-3): 12.63
- LogEC50 (best-fit) (W269A-3): -8.938
- Span (best-fit) (W269A-3): 80.26
- Top (best-fit) (W269A-3): 92.88
- EC50 (W269A-3, read-out: EC50 (best-fit)): 1.15 nM
- Best-fit Bottom (Y302A-1): -1.091
- Best-fit Span (Y302A-1): 74.2
- Best-fit Top (Y302A-1): 73.11
- LogEC50 (Y302A-1): -6.976
- EC50 (Y302A-1, read-out: EC50): 106 nM
- Best-fit Bottom (Y302A-2): -6.663
- Best-fit Span (Y302A-2): 106.6
- Best-fit Top (Y302A-2): 99.95
- LogEC50 (Y302A-2): -7.6
- EC50 (Y302A-2, read-out: EC50): 25.1 nM
- Best-fit Bottom (Y302A-3): -0.9588
- Best-fit Span (Y302A-3): 65.18
- Best-fit Top (Y302A-3): 64.22
- LogEC50 (Y302A-3): -6.976
- cAMP inhibition potency of mutants (alanine replacement of F208, F272, Y302, Q126, D122 in SSTR2): significantly decreased the cAMP inhibition potency
- Bottom (best-fit value) [1]: 3.745
- LogEC50 (best-fit value) [1]: -9.177
- Span (best-fit value) [1]: 105.4
- Top (best-fit value) [1]: 109.1
- EC50 (cAMP inhibition, SSTR2 F127A-1 (run 1), read-out: EC50 (best-fit value)): 0.665 nM
- Bottom (best-fit value) [2]: 6.147
- LogEC50 (best-fit value) [2]: -8.668
- Span (best-fit value) [2]: 104
- Top (best-fit value) [2]: 110.1
- EC50 (cAMP inhibition, SSTR2 F127A-2 (run 2), read-out: EC50 (best-fit value)): 2.15 nM
- Bottom (best-fit value) [3]: 2.844
- LogEC50 (best-fit value) [3]: -8.526
- Span (best-fit value) [3]: 104.1
- Top (best-fit value) [3]: 107
- EC50 (cAMP inhibition, SSTR2 F127A-3 (run 3), read-out: EC50 (best-fit value)): 2.98 nM
- Bottom (best-fit value) [4]: 10.39
- LogEC50 (best-fit value) [4]: -7.519
- Top (best-fit value) [4]: 89.25
- EC50 (cAMP inhibition, SSTR2 F208A-1 (run 1), read-out: EC50 (best-fit value)): 30.3 nM
- Bottom (best-fit value) [5]: -4.181
- LogEC50 (best-fit value) [5]: -7.462
- Top (best-fit value) [5]: 54.09
- EC50 (cAMP inhibition, SSTR2 F208A-2 (run 2), read-out: EC50 (best-fit value)): 34.6 nM
- Bottom (best-fit value) [6]: 13.21
- LogEC50 (best-fit value) [6]: -7.519
- Top (best-fit value) [6]: 113.5
- Bottom (best-fit value) [7]: 14.54
- LogEC50 (best-fit value) [7]: -8.728
- Span (best-fit value) [7]: 76.49
- Top (best-fit value) [7]: 91.02
- EC50 (cAMP inhibition, SSTR2 I130A-1 (run 1), read-out: EC50 (best-fit value)): 1.87 nM
- Bottom (best-fit value) [8]: 3.27
- LogEC50 (best-fit value) [8]: -7.739
- Span (best-fit value) [8]: 103.8
- Top (best-fit value) [8]: 107
- EC50 (cAMP inhibition, SSTR2 I130A-2 (run 2), read-out: EC50 (best-fit value)): 18.2 nM
- Bottom (best-fit value) [9]: 1.85
- LogEC50 (best-fit value) [9]: -7.833
- Span (best-fit value) [9]: 103.6
- Top (best-fit value) [9]: 105.4
- EC50 (cAMP inhibition, SSTR2 I130A-3 (run 3), read-out: EC50 (best-fit value)): 14.7 nM
- Bottom (best-fit value) [10]: -15.61
- LogEC50 (best-fit value) [10]: -10.22
- Span (best-fit value) [10]: 114
- Top (best-fit value) [10]: 98.43
- EC50 (cAMP inhibition, SSTR2 Y205A-1 (run 1), read-out: EC50 (best-fit value)): 0.0606 nM
- Bottom (best-fit value) [11]: -21.77
- LogEC50 (best-fit value) [11]: -10.31
- Span (best-fit value) [11]: 99.08
- Top (best-fit value) [11]: 77.31
- EC50 (cAMP inhibition, SSTR2 Y205A-2 (run 2), read-out: EC50 (best-fit value)): 0.0488 nM
- Bottom (best-fit value) [12]: 1.644
- LogEC50 (best-fit value) [12]: -9.761
- Span (best-fit value) [12]: 161.4
- Top (best-fit value) [12]: 163
- EC50 (cAMP inhibition, SSTR2 Y205A-3 (run 3), read-out: EC50 (best-fit value)): 0.173 nM
- LogEC50 (best-fit) [13]: -7.55
- Top (best-fit) [13]: 86.06
- EC50 (cAMP inhibition, SSTR2 T194H, run 1, read-out: EC50 (best-fit)): 28.2 nM
- LogEC50 (best-fit) [14]: -7.55
- Top (best-fit) [14]: 86.06
- EC50 (cAMP inhibition, SSTR2 T194H, run 2, read-out: EC50 (best-fit)): 28.2 nM
- LogEC50 (best-fit) [15]: -7.274
- Top (best-fit) [15]: 99.32
- EC50 (cAMP inhibition, SSTR2 T194H, run 3, read-out: EC50 (best-fit)): 53.2 nM
- LogEC50 (best-fit) [16]: -7.828
- Top (best-fit) [16]: 111.2
- EC50 (cAMP inhibition, SSTR2 T194H, run 4, read-out: EC50 (best-fit)): 14.9 nM
- LogEC50 (best-fit) [17]: -9.644
- Top (best-fit) [17]: 94
- EC50 (cAMP inhibition, SSTR2 V103N, run 1, read-out: EC50 (best-fit)): 0.227 nM
- LogEC50 (best-fit) [18]: -9.644
- Top (best-fit) [18]: 94
- EC50 (cAMP inhibition, SSTR2 V103N, run 2, read-out: EC50 (best-fit)): 0.227 nM
- LogEC50 (best-fit) [19]: -9.75
- Top (best-fit) [19]: 93.06
- EC50 (cAMP inhibition, SSTR2 V103N, run 3, read-out: EC50 (best-fit)): 0.178 nM
- LogEC50 (best-fit) [20]: -9.608
- Top (best-fit) [20]: 108.8
- EC50 (cAMP inhibition, SSTR2 V103N, run 4, read-out: EC50 (best-fit)): 0.247 nM
